Laboratory results: patent publication US20110172296A1, “MODULATION OF TRANSFORMING GROWTH FACTOR-BETA 1 EXPRESSION” (priority 2010, published 2011)
“And” between values parts separate entries of the source, which are not always exact repeats. Identical values can stand only once. e = 2'-O-(2-methoxyethyl) (MOE); d = 2'-deoxy (DNA)

Test system: human TGF-beta1 mRNA
Assay: Antisense inhibition of human TGF-beta1 mRNA in HuVEC cells, single 10 nM dose, Lipofectamine 2000 (Example 2)
Type: cell-based
Outline: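 HuVEC cells (5,000/well) transfected with 10 nM 2-13-5 MOE gapmer (phosphorothioate, 5-methylcytosine) via Lipofectamine 2000 for 4 h, then recovered ~24 h. mRNA measured by qRT-PCR, normalized to RIBOGREEN total RNA; percent inhibition versus untreated cells.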

For “414036 (antisense GTGTCCTTAAATACAGCCCC; sugars from the 5' end e2 d13 e5, backbone and methylation of C not given here) [compound 414036]”, the “% inhibition” value (10 nM oligonucleotide, HuVEC, relative to untreated control cells, gapmers targeted to SEQ ID NO: 1) was 87% and the “inhibition of a TGF-beta1 mRNA” value (threshold lists of Oligo IDs, 10 nM) was 60% and 65% and 70% and 75% and 80% and 85%.
